Results as given in patent publication US20040014972A1, “Arylpiperazine derivatives and their use as psychotropic agents” (priority 2000, published 2004).

| SMILES | melting point [°C] |
| --- | --- |
| Cl.Cl.Cl.O.O.O=C(CCCN1CCN(c2cccc3cccnc23)CC1)c1ccc(F)cc1 (hydrate or solvate) | 119 to 120 |
| Cl.Cl.O=C(CCCN1CCN(c2cccc3[nH]ccc23)CC1)c1ccc(F)cc1 | 233 to 234 |
| O=C(O)/C=C/C(=O)O.OC(CCCN1CCN(c2cccc3cccnc23)CC1)c1ccc(F)cc1 (stereo not drawn) | 145 to 146 |
